Laboratory results taken from ChEMBL document CHEMBL5236550, “Small molecule selenium-containing compounds: Recent development and therapeutic applications” (Eur J Med Chem, 2021).
≈ marks a conversion by molar mass, not a printed value.

Assays:
Trypanosoma cruzi [1] = experiment: Antibacterial activity against Trypanosoma cruzi Y assessed as fold change in bacterial growth incubated for 24 hrs; format: functional
[2] = Inhibition of Vibrio cholerae alpha carbonic anhydrase assessed as inhibition constant by phenol red-based hydrase assay
Carbonic anhydrase 1 = Carbonic anhydrase 1 (Homo sapiens, UniProt P00915); experiment: Inhibition of human carbonic anhydrase 1 assessed as inhibition constant
Carbonic anhydrase 12 = Carbonic anhydrase 12 (Homo sapiens, UniProt O43570); experiment: Inhibition of human carbonic anhydrase 12 assessed as inhibition constant
Carbonic anhydrase 2 = Carbonic anhydrase 2 (Homo sapiens, UniProt P00918); experiment: Inhibition of human carbonic anhydrase 2 assessed as inhibition constant
Carbonic anhydrase 9 = Carbonic anhydrase 9 (Homo sapiens, UniProt Q16790); experiment: Inhibition of human carbonic anhydrase 9 assessed as inhibition constant
HeLa [3] = experiment: Anticancer activity against human HeLa assessed as cell growth inhibition; format: functional, cell-based
HeLa [4] = experiment: Anticancer activity against human HeLa cells assessed as cell growth inhibition; format: functional, cell-based
EBC-1 = experiment: Anticancer activity against human EBC-1 cells assessed as cell growth inhibition incubated for 72 hrs by resazurin based spectrophotometer analysis; format: functional; conditions: EBC-1, 72 h
Candida albicans = experiment: Antifungal activity against Candida albicans assessed as fungal growth inhibition incubated by microtitre assay; format: functional
Fusarium = experiment: Antifungal activity against Fusarium assessed as fungal growth inhibition incubated by microtitre assay; format: functional
SH-SY5Y = experiment: Antitumor activity against human SH-SY5Y cells assessed as induction of apoptosis by propidium iodide staining based flow cytometry analysis; format: functional, cell-based
Aspergillus = experiment: Antifungal activity against Aspergillus assessed as fungal growth inhibition incubated by microtitre assay; format: functional
Aspergillus niger = experiment: […] inhibition incubated for 24 hrs by agar disc diffusion assay; format: functional
Leishmania major = experiment: Antibacterial activity against Leishmania major assessed as bacterial growth inhibition incubated for 72 hrs by MTT assay; format: functional, organism-based
Leishmania amazonensis = experiment: […] inhibition incubated for 72 hrs by Giemsa stain based microscopic analysis; format: functional, organism-based
Carbonic anhydrase 7 = Carbonic anhydrase 7 (Homo sapiens, UniProt P43166); experiment: Inhibition of human carbonic anhydrase 7 assessed as inhibition constant by a stopped flow CO2 hydrase assay
PC-3 = experiment: Anticancer activity against human PC-3 cells assessed as cell growth inhibition incubated for 24 to 96 hrs by MTT assay; format: functional, cell-based
DU-145 = experiment: Anticancer activity against human DU-145 cells assessed as cell growth inhibition incubated for 24 to 96 hrs by MTT assay; format: functional, cell-based
Trypanosoma cruzi [5] = experiment: Antibacterial activity against Trypanosoma cruzi Dm28c assessed as inhibition of bacterial growth incubated for 72 hrs by microplate reader analysis; format: functional, organism-based
Trypanosoma cruzi [6] = experiment: Antibacterial activity against Trypanosoma cruzi Y assessed as bacterial growth inhibition incubated for 24 hrs; format: functional, organism-based
Enterococcus faecalis [7] = experiment: Antibacterial activity against Enterococcus faecalis assessed as bacterial growth inhibition incubated for 24 hrs by microtitre analysis; format: functional
Bacillus cereus [8] = experiment: Antibacterial activity against Bacillus cereus assessed as bacterial growth inhibition incubated for 24 hrs by microtitre analysis; format: functional
Bacillus cereus [9] = experiment: […] activity against Bacillus cereus assessed as bacterial growth inhibition incubated for 24 hrs by microtitre analysis; format: functional
[10] = tested on: Staphylococcus saprophyticus; experiment: Antibacterial activity against Staphylococcus saprophyticus assessed as bacterial growth inhibition incubated for 24 hrs by microtitre analysis; format: functional
Staphylococcus aureus [11] = experiment: Antibacterial activity against Staphylococcus aureus HEMSA assessed as bacterial growth inhibition incubated for 20 to 24 hrs by microdilution assay; format: functional; conditions: time 20-24 hrs
Enterococcus faecalis [12] = experiment: Antibacterial activity against Enterococcus faecalis ATCC 29212 assessed as bacterial growth inhibition incubated for 20 to 24 hrs by microdilution assay; format: functional; conditions: time 20-24 hrs
Staphylococcus aureus [13] = experiment: Antibacterial activity against Staphylococcus aureus ATCC 2592 assessed as bacterial growth inhibition incubated for 20 to 24 hrs by microdilution assay; format: functional; conditions: time 20-24 hrs
[14] = Inhibition of Vibrio cholerae carbonic anhydrase alpha assessed as inhibition constant by stopped-flow CO2 hydration assay
Acinetobacter [15] = experiment: Antibacterial activity against Acinetobacter AB 4184/2/5 assessed as bacterial growth inhibition incubated for 20 hrs by […]; format: functional, organism-based; conditions: AB 4184/2/5, 20 h
Klebsiella pneumoniae [16] = experiment: Antibacterial activity against Klebsiella pneumoniae KP 1963584 assessed as bacterial growth inhibition incubated for 20 hrs by […]; format: functional, organism-based; conditions: KP 1963584, 20 h
Klebsiella pneumoniae [17] = experiment: Antibacterial activity against Klebsiella pneumoniae NRZ-00103 assessed as bacterial growth inhibition incubated for 20 hrs by […]; format: functional, organism-based; conditions: NRZ-00103, 20 h
Pseudomonas aeruginosa [18] = experiment: Antibacterial activity against Pseudomonas aeruginosa PA 54 assessed as bacterial growth inhibition incubated for 20 hrs by […]; format: functional, organism-based
Pseudomonas aeruginosa [19] = experiment: Antibacterial activity against Pseudomonas aeruginosa ATCC 27853 assessed as bacterial growth inhibition incubated for 20 hrs by […]; format: functional, organism-based; conditions: ATCC 27853, 20 h
Escherichia coli [20] = experiment: Antibacterial activity against Escherichia coli EC 2151612 assessed as bacterial growth inhibition incubated for 20 hrs by […]; format: functional
Staphylococcus aureus [21] = experiment: Antibacterial activity against Methicillin resistant Staphylococcus aureus assessed as bacterial growth inhibition incubated for 20 hrs by […]; format: functional
Escherichia coli [22] = experiment: Antibacterial activity against Escherichia coli NCTC 13351 assessed as bacterial growth inhibition incubated for 20 hrs by […]; format: functional
Acinetobacter [23] = experiment: Antibacterial activity against Acinetobacter AC 1995594 assessed as bacterial growth inhibition incubated for 20 hrs by […]; format: functional, organism-based; conditions: AC 1995594, 20 h
Escherichia coli [24] = experiment: Antibacterial activity against Escherichia coli EC 1995591 assessed as bacterial growth inhibition incubated for 20 hrs by […]; format: functional
Pseudomonas aeruginosa [25] = experiment: Antibacterial activity against Pseudomonas aeruginosa PA 58 assessed as bacterial growth inhibition incubated for 20 hrs by […]; format: functional
Pseudomonas aeruginosa [26] = experiment: Antibacterial activity against Pseudomonas aeruginosa PA T18 assessed as bacterial growth inhibition incubated for 20 hrs by […]; format: functional, organism-based; conditions: PA T18, 20 h
Escherichia coli [27] = experiment: Antibacterial activity against Escherichia coli EC 1227107 assessed as bacterial growth inhibition incubated for 20 hrs by […]; format: functional
Klebsiella pneumoniae [28] = experiment: Antibacterial activity against Klebsiella pneumoniae KP 21513017 assessed as bacterial growth inhibition incubated for 20 hrs by […]; format: functional, organism-based; conditions: KP 21513017, 20 h
Acinetobacter [29] = experiment: Antibacterial activity against Acinetobacter AC 2151300 assessed as bacterial growth inhibition incubated for 20 hrs by […]; format: functional, organism-based; conditions: AC 2151300, 20 h
U-266 = experiment: Anticancer activity against human U-266 cells assessed as cell growth inhibition incubated for 24 hrs by MTS assay; format: functional, cell-based; conditions: U-266, 24 h
MIA PaCa-2 = experiment: Anticancer activity against human MIA PaCa-2 cells xenografted in female Foxn1nu mouse assessed as reduction in tumor growth po,administered once daily for 28 days; format: functional; conditions: time 28 day

Sequence of Carbonic anhydrase 1 (P00915 whole entry): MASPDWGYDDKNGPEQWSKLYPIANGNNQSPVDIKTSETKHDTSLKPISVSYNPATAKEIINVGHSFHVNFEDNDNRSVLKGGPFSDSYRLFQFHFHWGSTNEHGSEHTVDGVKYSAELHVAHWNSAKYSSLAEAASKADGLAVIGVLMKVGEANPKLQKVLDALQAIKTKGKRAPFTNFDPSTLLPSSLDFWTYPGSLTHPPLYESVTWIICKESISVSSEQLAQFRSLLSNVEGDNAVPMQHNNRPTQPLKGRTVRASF
Sequence of Carbonic anhydrase 12 (O43570 whole entry): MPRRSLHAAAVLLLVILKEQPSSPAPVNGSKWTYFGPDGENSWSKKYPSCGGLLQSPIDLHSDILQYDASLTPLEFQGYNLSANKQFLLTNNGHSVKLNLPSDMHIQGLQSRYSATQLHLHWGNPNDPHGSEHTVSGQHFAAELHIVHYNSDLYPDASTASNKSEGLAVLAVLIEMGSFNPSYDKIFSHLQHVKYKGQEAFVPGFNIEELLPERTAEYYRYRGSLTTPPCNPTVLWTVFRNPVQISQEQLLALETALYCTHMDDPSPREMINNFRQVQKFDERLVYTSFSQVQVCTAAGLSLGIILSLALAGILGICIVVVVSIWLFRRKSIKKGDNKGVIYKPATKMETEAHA
Sequence of Carbonic anhydrase 7 (P43166 whole entry): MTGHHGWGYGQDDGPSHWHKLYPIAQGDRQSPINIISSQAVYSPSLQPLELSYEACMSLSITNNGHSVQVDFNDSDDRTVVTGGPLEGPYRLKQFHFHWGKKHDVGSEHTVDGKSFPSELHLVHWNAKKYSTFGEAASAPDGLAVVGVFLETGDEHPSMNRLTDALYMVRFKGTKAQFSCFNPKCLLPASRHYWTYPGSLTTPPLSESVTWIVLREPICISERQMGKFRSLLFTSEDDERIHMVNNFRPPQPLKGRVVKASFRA

Q: Which “fold change (FC)” value (Trypanosoma cruzi [1]) does the source give for `CC1(C)OC2=C(CC1[Se]c1ccc(F)cc1)C(=O)C(=O)c1ccccc12` (configuration not stated) here?
A: The value was 2.6.

Q: With `NS(=O)(=O)c1ccc([Se]CCc2ccccc2)cc1` as the compound, how does the Ki [2] read?
A: The Ki was 4.3 nM.

Q: Which Ki (Carbonic anhydrase 1) does the source give for `NS(=O)(=O)c1ccc(CCNC(=O)C[Se]c2ccccc2)cc1` here?
A: Its Ki is 64.2 nM.

Q: What about the Ki (Carbonic anhydrase 12) of the same compound?
A: Its Ki is 3.8 nM.

Q: And the Ki (Carbonic anhydrase 2)?
A: The Ki was 4.9 nM.

Q: What about the Ki (Carbonic anhydrase 9) of the same compound?
A: The Ki was 4.7 nM.

Q: Which results are given for `COC(CNC(=[Se])Nc1ccc([N+](=O)[O-])cc1)c1ccc(O)c(O)c1` (configuration not stated)?
A: IC50 (HeLa [3]): 3760 nM; IC50 (HeLa [4]): 1800 nM

Q: Which IC50 (EBC-1) does the source give for `CN(C)C(SCCCCCCN(C)c1ccc(-n2[se]c3ccccc3c2=O)cc1)=[N+](C)C` here?
A: Its IC50 is less than 20000 nM.

Q: Which MIC (Candida albicans) does the source give for `c1ccc([Se][Se]c2ccccc2)cc1` here?
A: Its MIC is 4 µg/mL (≈ 12.8 µM).

Q: What about the MIC (Fusarium) of the same compound?
A: The MIC was 2 µg/mL (≈ 6.41 µM).

Q: And the IC50 (SH-SY5Y)?
A: The IC50 was 30000 nM.

Q: And the MIC (Aspergillus)?
A: The MIC was 0.5 µg/mL (≈ 1.6 µM).

Q: With `CCc1ccccc1-n1c(=[Se])n(C(c2ccccc2)c2ccccc2)c2ccccc21` as the compound, how does the “inhibition zone (IZ)” value (Aspergillus niger) read?
A: The value was 27.01 mm.

Q: For `[Se]=C=NCCCCCCC1Cc2cccc3cccc(c23)C1`, which IC50 (Leishmania major) is on record?
A: The IC50 was 30.1 nM.

Q: What about the IC50 (Leishmania amazonensis) of the same compound?
A: The IC50 was 280 nM.

Q: For `Cc1ccc([Se]CC(C)N)cc1` (configuration not stated), which Ki (Carbonic anhydrase 7) is on record?
A: The Ki was 10400 nM.

Q: Which results are given for `O=c1c2ccccc2[se]n1CCn1[se]c2ccccc2c1=O` [ETHASELEN]?
A: IC50 (PC-3): 17800 nM; IC50 (DU-145): 15400 nM

Q: For `O=C(Cn1ccnc1[N+](=O)[O-])NCc1ccccc1` [BENZNIDAZOLE], which IC50 (Trypanosoma cruzi [5]) is on record?
A: Its IC50 is 12500 nM.

Q: And the IC50 (Trypanosoma cruzi [6])?
A: The IC50 was 104000 nM.

Q: For `c1csc([Se][Se]c2cccs2)c1`, which MIC (Enterococcus faecalis [7]) is on record?
A: The MIC was 96.8 µg/mL (≈ 298 µM).

Q: What about the MIC (Bacillus cereus [8]) of the same compound?
A: Its MIC is 24.2 µg/mL (≈ 74.6 µM).

Q: And the MIC (Bacillus cereus [9])?
A: Its MIC is 24.2 µg/mL (≈ 74.6 µM).

Q: And the MIC [10]?
A: Its MIC is 96.8 µg/mL (≈ 298 µM).

Q: With `CC(=O)C[Se]C(=O)c1ccc(Cl)cc1` as the compound, how does the MIC (Staphylococcus aureus [11]) read?
A: The MIC was 3.91 µM (≈ 1.08 µg/mL).

Q: What about the MIC (Enterococcus faecalis [12]) of the same compound?
A: Its MIC is 12.5 µM (≈ 3.44 µg/mL).

Q: What about the MIC (Staphylococcus aureus [13]) of the same compound?
A: The MIC was 3.12 µM (≈ 0.86 µg/mL).

Q: For `NS(=O)(=O)c1ccc(CCNC(=[Se])NC(=O)c2ccc3c(c2)OCO3)cc1`, which Ki [14] is on record?
A: Its Ki is 0.3 nM.

Q: Which IC50 (Acinetobacter [15]) does the source give for `CC(C)(O)c1[se][n+]2ccccc2c1Br.[Cl-]` here?
A: Its IC50 is 0.31 µg/mL.

Q: And the IC50 (Klebsiella pneumoniae [16])?
A: Its IC50 is 0.31 µg/mL.

Q: What about the IC50 (Klebsiella pneumoniae [17]) of the same compound?
A: The IC50 was 0.31 µg/mL.

Q: What about the IC50 (Pseudomonas aeruginosa [18]; PA 54, 20 h) of the same compound?
A: The IC50 was 0.31 µg/mL.

Q: And the MIC (Pseudomonas aeruginosa [18]; PA 54, time 20 hrs)?
A: Its MIC is 0.31 µg/mL.

Q: And the IC50 (Pseudomonas aeruginosa [19])?
A: Its IC50 is 0.31 µg/mL.

Q: And the MIC (Escherichia coli [20])?
A: The MIC was 0.31 µg/mL.

Q: What about the MIC (Staphylococcus aureus [21]) of the same compound?
A: Its MIC is 0.31 µM.

Q: What about the MIC (Escherichia coli [22]) of the same compound?
A: The MIC was 0.31 µg/mL.

Q: What about the IC50 (Acinetobacter [23]) of the same compound?
A: Its IC50 is 0.31 µg/mL.

Q: What about the MIC (Escherichia coli [24]) of the same compound?
A: Its MIC is 0.31 µg/mL.

Q: And the MIC (Pseudomonas aeruginosa [25])?
A: Its MIC is 0.31 µg/mL.

Q: What about the IC50 (Pseudomonas aeruginosa [26]) of the same compound?
A: Its IC50 is 0.31 µg/mL.

Q: What about the MIC (Escherichia coli [27]) of the same compound?
A: The MIC was 0.31 µg/mL.

Q: And the IC50 (Klebsiella pneumoniae [28])?
A: Its IC50 is 0.31 µg/mL.

Q: And the IC50 (Acinetobacter [29])?
A: Its IC50 is 0.31 µg/mL.

Q: For `O=c1c2ccccc2[se]n1-c1ccccc1` [EBSELEN], which IC50 (U-266) is on record?
A: The IC50 was 40000 nM.

Q: What about the “inhibition (INH)” value (MIA PaCa-2) of the same compound?
A: Its value is 58%.
